Results published in patent US20190264228A1, “TRANSFECTION METHOD COMPRISING NONVIRAL GENE DELIVERY SYSTEMS” (priority 2016, published 2019).
Like-named read-outs stand apart in the source and are kept apart here.

Test system: HeLa cells
Test: Lipofection of HeLa cells with pCMV-luc / Rotifect Plus; transfection efficiency by luciferase reporter assay
Format: cell-based
Conditions: for Results in RLU/μg protein (averages): carried out analogously with Example 1; for Results in RLU (averages of three tests): inhibitors added 2 hours before and during transfection, luciferase assay after 24 hours
Experimental: The transfection efficiency was measured indirectly using a luciferase enzyme, which was coded by the inserted nucleic acid. This is a reporter gene system. These are established systems for detecting the transfection efficiency. Thus, the greater the amount of luciferase which can be detected in a culture vessel after lysis of the transfected cells, the greater the transfection efficiency. The amount of luciferase is detected by way of an enzyme substrate reaction in which a light quantum is released. These light quanta can be measured by suitable measurement devices known as luminometers. Since the number of light quanta measured is dependent in particular on the time interval in which the measurement took place, this light quantum amount is also denoted as “relative light units”. For comparative studies, the measurement conditions must therefore be identical. […] In both examples, for the treatment using the IKKe/TBK1 inhibitor and an inhibitor for a nucleic-acid-detecting toll-like receptor a significant improvement can be observed, and also cannot be explained merely by simple addition of the individual rates of increase for TKKe/TBK1 inhibitor and an inhibitor for a nucleic-acid-detecting toll-like receptor. This is thus clearly a synergistic effect. The following was used as general material: • 1. HeLa cells; ATTC CCL-2 • 2. Rotifect Plus, Carl Roth; Cat. No.: CL21.2 • 3. 48-well plates; Cellstar; Greiner BioOne; Cat. No.: 677180 • 4. DMEM; high-glucose; Biowest, w/stable glutamine/sodium pyruvate, Cat. No.: L103-500 • 5. Serum FBS Gold; PAN Biotech; Batch No. P130914: Cat. No.: P40-37500 • 6. pCMV-luc, Plasmid Factory, Cat. No.: PF461 • 7. Luciferase Assay Kit, Promega • 8. Dimethyl sulphoxide (DMSO for molecular biology), Fluka; Cat. No.: 41639 • 9. […] No.: 204001 • 10. […] Fluka; Cat. No.: C6628 • 11. […] TCI: Cat. No.: Q0056 The first embodiment, shown in FIG. 1, relates to lipofection of HeLa cells with a conventional commercial transfection reagent (Rotifect Plus), which were treated with the inhibitor BX795 for IKKe and TBK1 and with chloroquine as an inhibitor for TLR9 before and during the transfection. The lipofection of the HeLa cells was carried out over a 3-day period: […] HeLa cells were seeded into a 48-well plate. A cell count of 1*10^5 cells per well was plated in 250 μl complete DMEM medium (10% FCS). This was followed by incubation in a CO2 incubator (10%) for 24 hours. […] This was followed by incubation in a CO2 incubator (10%) for 24 hours. The efficiency of the transfection was determined using a luciferase assay kit. The assay was carried out in accordance with the manufacturer's instructions. The second embodiment, shown in FIG. 2, relates to lipofection of HeLa cells, which were treated with the inhibitor BX795 for IKKe and TBK1 and with quinacrine as an inhibitor for TLR9 before and during the transfection. The lipofection of the HeLa was carried out analogously with Example 1.

[1] = Example 2, FIG. 2, HeLa cells, BX795 0.5 μM, quinacrine 2.5 μM
[2] = Example 2, HeLa cells, BX795 0.5 μM, quinacrine 2.5 μM
[3] = Homo sapiens, HeLa, Example 2, FIG. 2, HeLa cells, BX795 0.5 μM, quinacrine 2.5 μM, read-out: transfection efficiency normalised to transfection without inhibitors (ST = 100%)
[4] = Example 1, FIG. 1, HeLa cells, BX795 0.5 μM, chloroquine 10 μM
[5] = Example 1, HeLa cells, BX795 0.5 μM, chloroquine 10 μM

Compound	Results in RLU/μg protein (averages) [1] [RLU/μg protein]	increase over standard transfection [2] [%]	activity at 2.5 µM [3] [%]	Results in RLU (averages of three tests) [4] [RLU]	increase over standard transfection [5] [%]	activity at 10 µM (Homo sapiens, HeLa, read-out: transfection efficiency normalised to transfection without inhibitors (ST = 100%)) [%]	activity at 0.5 µM (Homo sapiens, HeLa, Example 1, FIG. 1, HeLa cells, BX795 0.5 μM, chloroquine 10 μM, read-out: transfection efficiency normalised to transfection without inhibitors (ST = 100%)) [%]	activity at 0.5 µM [3] [%]
CCN(CC)CCCC(C)Nc1c2ccc(Cl)cc2nc2ccc(OC)cc12 (stereo not drawn) [Quinacrine, quinacrine]	73924	41	385	–	–	–	–	–
CCN(CC)CCCC(C)Nc1ccnc2cc(Cl)ccc12 (stereo not drawn) [Chloroquine]	–	–	–	46817	19	119	–	–
O=C(NCCCNc1nc(Nc2cccc(NC(=O)N3CCCC3)c2)ncc1I)c1cccs1 [BX795]	27260	285	–	50282	256	–	356	141
